Source: patent US11260127B2, “Mesoporous silica nanoparticles for diagnostic and therapeutic applications” (CASE WESTERN RESERVE UNIVERSITY, priority 2017, dated 2022)

Test: In vitro RF-triggered drug release from Fe@MSN nanoparticles
Assay type: physicochemical
Conditions: for drug release rate of two drugs compared: release from Fe@MSN under the same RF field
Method: FIGS. 2(A-E) illustrate in vitro evaluation of radiofrequency (RF)-triggered drug release from Fe@MSN nanoparticles. (A) The release of DOX was triggered from Fe@MSN particles using an RF field at different frequencies (1, 20, 50 and 380 kHz; n=4). […] (C) Effect of elevated temperature on the drug release from Fe@MSN particles with an incubation time of 60 min (n=4; unpaired t-test P<0.0001). (D) Drug release from Fe@MSN at different particle concentration under an RF field at 50 kHz. (E) Drug release from Fe@MSN particles at different depths in the RF source (RF field: 50 kHz).
Further, when the temperature of the Fe@MSN suspension was elevated to 60° C. for 60 min by external heating, negligible drug was released ([…]). These two findings indicate that the triggered release mechanism is not based on hyperthermic effects applications, thereby minimizing the role of Neel relaxation phenomenon in RF-triggered drug release from the Fe@MSN nanoparticles.
Similar drug release rate per nanochain particle was observed from suspensions of dramatically different concentrations of Fe@MSN nanoparticles when subjected to the same RF field.
The RF-triggered drug release is nearly independent of the type of drug molecules.

SMILES	drug release rate of two drugs compared	RF-triggered drug release rate (RF field, very low Fe@MSN concentration, 1 or 10 kHz)
CC(=N)NCc1cccc(CN)c1 [1400 W]	almost identical	
COc1cccc2c1C(=O)c1c(O)c3c(c(O)c1C2=O)C[C@@](O)(C(=O)CO)C[C@@H]3O[C@H]1C[C@H](N)[C@H](O)[C@H](C)O1 [DOX, doxorubicin]	almost identical	triggered in a controlled manner
